Test results taken from paper PMC5640562, “Synthesis and anticancer activity of novel quinazolinone-based rhodanines” (Chemistry Central Journal, 2017).

Columns and labels:
HT-1080 cells [1] = experiment: MTT cytotoxicity assay, HT-1080 fibrosarcoma cells; assay type: cell-based, human; settings: 3 days incubation, mean of three independent experiments (± standard deviation)
Method: (§1) The compounds were tested for their cytotoxic activity on a solid tumor cell line, i.e. HT-1080 originating from a fibrosarcoma (American Type Culture Collection; ATCC, Rockville, MD, USA), and on two leukemia cell lines, i.e. the HL-60 human promyelocytic leukemia (European Collection of Animal Cell Cultures; ECACC, Salisbury, UK) and the K-562 human chronic myelogenous leukemia (ATCC). Furthermore, the human skin fibroblast strain AG01523 (Coriell Institute for Medical Research, Camden, NJ, USA) was also used as normal control. Adherent cells were routinely cultured in Dulbecco’s […] (DMEM), and leukemia cells in RPMI 1640, in an environment of 5% CO2, 85% humidity, and 37 °C. All media were supplemented with penicillin (100 U/ml), streptomycin (100 μg/ml) (media and antibiotics from Biochrom KG, Berlin, Germany), and 10% fetal bovine serum (Life Technologies Europe BV, Thessaloniki, Greece). Adherent cells were subcultured using a trypsin (0.25%; Life Technologies Europe BV)—citrate (0.30%; Sigma, St. Louis, MO, USA) solution. The cytotoxicity assay was performed by a modification of the MTT method. Briefly, the cells were plated in flat-bottomed 96-well microplates at a density of 5000 cells/well, and incubated overnight before the addition of serial dilutions of the test compounds. The cells were incubated with the compounds or the corresponding vehicle (DMSO) concentrations for 3 days. Then, the medium was replaced with MTT (Sigma) in serum-free, phenol-red-free DMEM (1 mg/ml). After incubation for 4 h, the MTT formazan was solubilized in 2-propanol, and the optical density was measured using a FLUOstar Optima (BMG Labtech, Ortenberg, Germany) microplate reader at a wavelength of 550 nm (reference wavelength 660 nm). Doxorubicin hydrochloride (Sigma) was included in the experiments as positive control. The results represent the mean of three independent experiments and are expressed as IC50 [42].

HL-60 cells = experiment: MTT cytotoxicity assay, HL-60 promyelocytic leukemia cells; assay type: cell-based, human; settings: 3 days incubation, mean of three independent experiments (± standard deviation)
Method: as §1

K-562 cells = experiment: MTT cytotoxicity assay, K-562 chronic myelogenous leukemia cells; assay type: cell-based, human; settings: 3 days incubation, mean of three independent experiments (± standard deviation)
Method: as §1

[2] = MTT cytotoxicity assay, normal skin fibroblast strain AG01523; assay type: cell-based; settings: AG01523 normal skin fibroblasts, normal human skin fibroblasts, 3 days incubation, mean of three independent experiments (± standard deviation)
Method: as §1

HT-1080 cells [3] = experiment: Flow cytometric analysis of DNA content (cell cycle phase distribution); assay type: cell-based, human; settings: 48 h, flow cytometry of DNA content (not shown)
AG01523 fibroblasts = experiment: MTT cytotoxicity assay, normal skin fibroblast strain AG01523; assay type: cell-based; settings: normal human skin fibroblasts, 3 days incubation, mean of three independent experiments (± standard deviation)
Method: as §1

SMILES: COc1ccc(-n2c(COc3ccc(C=C4SC(=S)NC4=O)cc3)nc3ccccc3c2=O)cc1 [Compound 40, 5-{4-[(3-(4-Methoxyphenyl)-4-oxo-3,4-dihydroquinazolin-2-yl)methoxy]benzylidene}-2-thioxothiazolidin-4-one]
- IC50 (HT-1080 cells [1]; Homo sapiens, HT-1080, 72 h): 36.4 µM
- melting point: 190 to 192 °C (dec.)

SMILES: COc1cc(C=C2SC(=S)NC2=O)ccc1OCc1nc2ccccc2c(=O)n1-c1ccc(F)cc1 [Compound 42, 5-{4-[(3-(4-Fluorophenyl)-4-oxo-3,4-dihydroquinazolin-2-yl)methoxy]-3-methoxybenzylidene}-2-thioxothiazolidin-4-one]
- IC50 (HT-1080 cells [1]; Homo sapiens, HT-1080, 72 h): 35.8 µM
- melting point: 163 to 166 °C

SMILES: COc1cc(C=C2SC(=S)NC2=O)ccc1OCc1nc2ccccc2c(=O)n1-c1ccc(Cl)cc1 [Compound 43, 5-{4-[(3-(4-Chlorophenyl)-4-oxo-3,4-dihydroquinazolin-2-yl)methoxy]-3-methoxybenzylidene}-2-thioxothiazolidin-4-one]
- IC50 HL-60 cytotoxicity (HL-60 cells): low micromolar range
- IC50 (HL-60 cells; Homo sapiens, HL-60, 72 h): 5.1 µM
- IC50 (HT-1080 cells [1]; Homo sapiens, HT-1080, 72 h): 10.2 µM
- IC50 K-562 cytotoxicity (K-562 cells): low micromolar range
- IC50 (K-562 cells; Homo sapiens, K562, 72 h): 4.5 µM
- IC50 at 3 days [2]: > 100 µM
- Cell cycle phase distribution (HT-1080 cells [3]): S-phase arrest

SMILES: COc1cc(C=C2SC(=S)NC2=O)ccc1OCc1nc2ccccc2c(=O)n1-c1cccc(Cl)c1 [Compound 44, 5-{4-[(3-(3-Chlorophenyl)-4-oxo-3,4-dihydroquinazolin-2-yl)methoxy]-3-methoxybenzylidene]-2-thioxothiazolidin-4-one]
- IC50 (HT-1080 cells [1]; Homo sapiens, HT-1080, 72 h): 28.4 µM
- melting point: 147 to 150 °C

SMILES: COc1cc(C=C2SC(=S)NC2=O)ccc1OCc1nc2ccccc2c(=O)n1-c1ccc(Br)cc1 [Compound 45, 5-{4-[(3-(4-Bromophenyl)-4-oxo-3,4-dihydroquinazolin-2-yl)methoxy]-3-methoxybenzylidene}-2-thioxothiazolidin-4-one]
- IC50 HL-60 cytotoxicity (HL-60 cells): low micromolar range
- IC50 (HL-60 cells; Homo sapiens, HL-60, 72 h): 1.2 µM
- IC50 (HT-1080 cells [1]; Homo sapiens, HT-1080, 72 h): 8.7 µM
- IC50 K-562 cytotoxicity (K-562 cells): low micromolar range
- IC50 (K-562 cells; Homo sapiens, K562, 72 h): 1.5 µM
- IC50 at 3 days [2]: > 100 µM
- Cell cycle phase distribution (HT-1080 cells [3]): S-phase arrest

SMILES: COc1cc(C=C2SC(=S)NC2=O)ccc1OCc1nc2ccccc2c(=O)n1-c1ccc(C(F)(F)F)cc1 [Compound 47]
- IC50 (HL-60 cells): 2.6 µM
- IC50 HL-60 cytotoxicity (HL-60 cells): low micromolar range
- IC50 (HT-1080 cells [1]): 15.8 µM
- IC50 (K-562 cells): 5.1 µM
- IC50 K-562 cytotoxicity (K-562 cells): low micromolar range
- IC50 (AG01523 fibroblasts): > 100 µM

SMILES: COc1cccc2c1C(=O)c1c(O)c3c(c(O)c1C2=O)C[C@@](O)(C(=O)CO)C[C@@H]3O[C@H]1C[C@H](N)[C@H](O)[C@H](C)O1 [Doxorubicin, reference compound]
- IC50 (HL-60 cells; Homo sapiens, HL-60, 72 h): 0.011 µM
- IC50 (HT-1080 cells [1]; Homo sapiens, HT-1080, 72 h): 0.012 µM
- IC50 (K-562 cells; Homo sapiens, K562, 72 h): 0.212 µM
- IC50 at 3 days [2]: 0.875 µM
